Where two headings read alike, the source gives them in different places. Where a SMILES comes first, the peptide text is derived from it. Bridges are numbered along the chain shown (N, C = ends). [ ]: non-standard residue; d: D form.
Tests used:
[1] = Single-dose pharmacokinetic study, plasma and heart concentration by LC/MS/MS; assay type: in vivo, CD-1 mice; conditions: for Tmax: female, CD-1, mouse, plasma and heart
Procedure: For single-dose pharmacokinetic studies, 7-9 week old female CD-1 mice were obtained from Charles River Laboratories, Inc. by Covance Laboratories Inc., Greenfield, Ind., USA. For subcutaneous injection, GsMTx4-D was dissolved at a concentration of 7.5 mg/ml in phosphate buffered saline pH 7.4 and injected subcutaneously into the back of mice at a net dose of 50 mg/kg. For intravenous (IV) administration into the tail vein, 1.5 mg/ml GsMTx4-D was used to achieve a dose of 5 mg/kg. Animals were sacrificed at 5, 15, 30, 60, 120, 480, 960 and 1920 min after injection, and blood and heart tissue samples were harvested. Animals were checked for death or morbidity during the whole trial. At the conclusion of each trial period, mice were euthanized by CO2 inhalation for 10 min. Blood samples were treated with sodium heparin and centrifuged to obtain plasma. There were cohorts of 3 mice per time point, and tissue samples from the 3 animals were combined from each time point to create average samples. Samples were sent to Custom Biologics, Mississauga, ON, Canada to measure the amount of GsMTx4 by liquid chromatography tandem mass spectrometry (LC/MS/MS) in the tissue samples. A reference standard was included in each sample consisting of a functional mutant of GsMTx4-D (F34A). All procedures in this protocol are in compliance with the U.S. Department of Agriculture's (USDA) Animal Welfare Act (9 CFR Parts 1, 2, and 3); the Guide for the Care and Use of Laboratory Animals: Eighth Edition, (Institute for Laboratory Animal Research, The National Academies Press, Washington, D.C., 2010); and the National Institutes of Health, Office of Laboratory Animal Welfare. Whenever possible, procedures in this study were designed to avoid or minimize discomfort, distress, and pain to animals. For ischemic reperfusion (I/R) testing, we used male C57B1/6J mice (4-6 months of age) obtained from Jackson Laboratories (Bar Harbor, […].). All animal protocols in this study were approved by the Institutional Animal Care and Use Committee of the University at Buffalo-State University of New York.
To provide a frame of reference for concentration and timing, we compared IV (fast absorption) to subcutaneous (slow absorption) administration and determined the distribution of the peptide in the heart and plasma over 24 hrs using LC/MS/MS (FIG. 1). Mice were sacrificed at different times after injection and the plasma (FIG. 1A) and heart (FIG. 1B) concentrations sampled. […] The samples from the 3 mouse cohorts at each time point were mixed and averaged. […] IV injection of 5 mg/kg GsMTx4-D produced an early spike in plasma concentration ([…] at 5 min) that decayed within 30 min. […] We used 1-5 μM ([…] is 1 μM) as our target concentration for treatment. IV injection of 5 mg/kg GsMTx4-D produced plasma concentrations within 5 minutes that were substantially above the target concentration while whole heart concentrations were somewhat lower than this range. Other ranges may be used for treatment, such as about 1.5-4.5 μM, about 2-4 μM, about 2.5-3.5 μM, about 1-4 μM, about 1-3 μM and about 1-2 μM. The whole heart concentration was lower than the target range within 5 minutes of IV injection, but the net plasma concentrations were acceptable.
Based on the slower distribution by subcutaneous administration, we injected 10 times the concentration of GsMTx4-D as that used in IV injection. The concentrations increased more slowly in both plasma and heart, peaking in ˜2 hrs, although we could reliably detect it in both tissues within 5 minutes. […] Without being bound by any theory, we believe that this is likely due to deeper infiltration into the tissue, and possibly higher affinity associations.

[2] = tested on: I/R induced arrhythmias in mouse heart; assay: Heart rhythm analysis (ECG) during reperfusion, I/R induced arrhythmia; assay type: in vivo, C57B1/6J mice; conditions: for total incidence of arrhythmias (ventricular and supraventricular premature beats): vehicle 14.9±4.5; for mean heart rate during the 15 min of reperfusion: vehicle 162.9±13.2
Procedure: During reperfusion we continuously recorded ECGs, from which mean heart rate, PR, QRS, and QT intervals were derived for each animal. We evaluated the incidence of arrhythmias by counting the incidences of arrhythmias including ventricular and supraventricular premature beats by summing the number of episodes based on limb lead recordings for 15 min after reperfusion. Ventricular premature beats are considered more severe. Each group contained 5 to 7 independent experiments (vehicle n=7, verapamil n=6, GsMTx4-D 0.1mg/kg n=5, 1 mg/kg n=6 and 10 mg/kg n=5).
Heart rate and rhythm were monitored by ECG to confirm the hallmark ischemic ST-segment elevation during coronary occlusion, and the gradually increasing inversion of the T-wave during reperfusion (FIG. 4A). Since generation of arrhythmias is a good indicator of the level of I/R damage, we counted ventricular and supraventricular premature beats occurring within 15 min of reperfusion (FIG. 4B). No ventricular tachycardia was observed during 20 min ischemia and 15 min reperfusion in the mouse heart. […] Considering that ventricular premature beats are indicative of more severe damage, the incidence of this specific arrhythmia was analyzed separately (FIG. 4 D). […] There was no difference in mean heart rate before ischemia (FIG. 4E). […] There was no difference in PR, QRS or QT intervals after treatment in all groups (data not shown).

[3] = subcutaneous injection 50 mg/kg

Structure (SMILES): CC(C)C[C@H]1NC(=O)[C@H](NC(=O)CN)CSSC[C@H]2NC(=O)[C@H]3CSSC[C@H](C(=O)N[C@H](CC(N)=O)C(=O)N[C@H](Cc4ccccc4)C(=O)N[C@H](CO)C(=O)N[C@H](Cc4ccccc4)C(N)=O)NC(=O)[C@@H](CC(C)C)NC(=O)[C@@H](CCCCN)NC(=O)[C@@H](Cc4ccccc4)NC(=O)[C@@H](CC(C)C)NC(=O)[C@@H](CCCCN)NC(=O)[C@@H](CO)NC(=O)[C@@H](CSSC[C@@H](NC(=O)[C@@H](CCCCN)NC(=O)[C@@H](Cc4c[nH]c5ccccc45)NC(=O)[C@@H](Cc4c[nH]c5ccccc45)NC(=O)[C@@H](Cc4ccccc4)NC(=O)[C@@H](CCC(=O)O)NC1=O)C(=O)N[C@H](CC(N)=O)C(=O)N1CCC[C@@H]1C(=O)N[C@H](CC(N)=O)C(=O)N[C@H](CC(=O)O)C(=O)N[C@H](CC(=O)O)C(=O)N[C@H](CCCCN)C(=O)N3)NC(=O)[C@@H](CCCCN)NC(=O)[C@@H](CC(C)C)NC(=O)[C@@H](CCCCN)NC(=O)[C@H]1CCCN1C(=O)[C@@H](CCCNC(=N)N)NC2=O [GsMTx4-D] (H-G[dC][dL][dE][dF][dW][dW][dK][dC][dN][dP][dN][dD][dD][dK][dC][dC][dR][dP][dK][dL][dK][dC][dS][dK][dL][dF][dK][dL][dC][dN][dF][dS][dF]-NH2; disulfide 2-17, 9-23, 16-30 (inferred); N-terminus and C-terminus assumed)
- death or abnormal behavior during PK study ([1]; IV 5 mg/kg or subcutaneous 50 mg/kg): No mice died during the study, nor did any show abnormal behavior
- time within which plasma concentration spike decayed ([1]; IV injection of 5 mg/kg): ≤ 30 min
- Tmax ([1]; 5 mg/kg, after IV injection, read-out: time of concentration spike in plasma and heart): < 0.0833 h
- Tmax ([1]; sc, subcutaneous injection 50 mg/kg, read-out: time of peak concentration in plasma and heart): ~2 h
- half-life ([1]; mouse, in vivo, D form): > 24 h
- heart concentration twenty four hours after injection ([1]; single 50 mg/kg subcutaneous injection, target range 1-5 μM): near the target range
- plasma concentration by 24 hrs [1, 3]: nearly undetectable
- time of peak concentration in plasma and heart [1, 3]: ~2 h
- total incidence of arrhythmias (ventricular and supraventricular premature beats) ([2]; 0.1 mg/kg IV 5 min before reperfusion, not significantly different): 10.4±6 incidence/15 min reperfusion
- total incidence of arrhythmias (ventricular and supraventricular premature beats) ([2]; 1 mg/kg IV 5 min before reperfusion): 2.3±0.7 incidence/15 min reperfusion
- mean heart rate during the 15 min of reperfusion ([2]; 1 mg/kg IV): 255.7±33.4
- ventricular premature beats ([2]; 1 mg/kg IV, within 15 min of reperfusion, vehicle 5.7±1.8): 1.3±0.4
- total incidence of arrhythmias (ventricular and supraventricular premature beats) ([2]; 10 mg/kg IV 5 min before reperfusion): 2.2±1.0 incidence/15 min reperfusion
- mean heart rate during the 15 min of reperfusion ([2]; 10 mg/kg IV): 286.1±25.0

From patent US20170072012A1, “USE OF GSMTX4 TO REDUCE ISCHEMIA REPERFUSION INJURY” (priority 2014, published 2017)
